Paper PMC10643210, “Expanding structural diversity of 5′-aminouridine moiety of sansanmycin via mutational biosynthesis” (Frontiers in Bioengineering and Biotechnology, 2023)
Values after ≈ are worked out from the molar mass of the structure shown. Read-outs that look alike come from different tables or passages of the source.

Legend:
MraY A. aeolicus = conditions: Figure 1F, ref Mashalidis et al., 2019, cited from earlier work
Description: (§1) FIGURE 1 Chemical structures of natural UPAs (black) and synthetic analogues with modified 5′-aminouridine moiety (blue) and their corresponding inhibitory activity. (A) The pseudo-tetrapeptide backbone of UPAs. (B) The chemical structures of 5′-aminouridine of natural UPAs. (C–E) The chemical structures of modified 5′-aminouridine of synthetic analogues. (F) Detailed information on structure and inhibitory activities of natural UPAs and synthesized derivatives. Pae, Pseudomonas aeruginosa; Mtb, Mycobacterium tuberculosis; B. subtilis, Bacillus subtilis; S. aureus, Staphylococcus aureus; A. ae ...

Pae PAO1 = conditions: Figure 1F; ref Okamoto et al., 2012; cited from earlier work
M. tuberculosis S17 [1] = assay: microbe, parasite or virus in culture; conditions: Mycobacterium tuberculosis, S17, read-out: MIC M. tuberculosis S17
M. tuberculosis H37Rv [2] = assay: microbe, parasite or virus in culture; conditions: Mycobacterium tuberculosis, read-out: MIC M. tuberculosis H37Rv
Mtb H37Rv [3] = conditions: Figure 1F, natural sansanmycins; reference not given; cited from earlier work
M. tuberculosis H37Rv [4] = system: M. tuberculosis H37Rv
M. tuberculosis S17 [5] = conditions: clinical isolate susceptible to isoniazid and rifampicin; Alamar blue, 7H9 broth, triplicate wells
[6] = Stability in KH2PO4 buffer, HPLC; assay type: physicochemical; conditions: chemical stability, 0.05 M KH2PO4 buffer pH 6.0, room temperature (method: 28 °C), HPLC peak area, three parallel repeats
Description: Poor stability is one of the factors hindering the development of sansanmycin analogues into drug candidates. Thus, we conducted stability experiments followed the method reported previously ([Shi et al., 2016]) on the two active sansanmycin analogues, SS-KK-2 and SS-KK-3 (Figure 5). These experiments were carried out at room temperature with the parent compound SS-A as a control.
FIGURE 5 Stability of SS-A, SS-KK-2 and SS-KK-3. (A–C) HPLC analysis of SS-A, SS-KK-2 and SS-KK-3 at indicated days in KH2PO4 buffer (pH 6.0) at room temperature. (D) The changes of the level of SS-A, SS-KK-2 and SS-KK-3 over time. All samples were analyzed by HPLC and quantified according to the areas of peaks. Each sample underwent three parallel repeats. SS-A, black line; SS-KK-2, orange line; SS-KK-3, green line.
The stability assessment of sansanmycin A and its analogues was conducted using a previously reported method ([Shi et al., 2016]). Sansanmycins were dissolved in 0.05 M KH2PO4 buffer (with pH adjusted to 6.0 using NaOH) and incubated at 28 °C for 9 days with testing conducted every 3 days. Each sample underwent three parallel repeats. All samples were analyzed by HPLC and quantified by peak area analysis.

P. aeruginosa 11 [7] = conditions: microdilution in Mueller-Hinton broth, 10 h at 37°C, visual read-out, triplicate
M. Phlei [8] = conditions: microdilution in Mueller-Hinton broth, 10 h at 37°C, visual read-out, triplicate
E. coli ΔtolC = conditions: microdilution in Mueller-Hinton broth, 10 h at 37°C, visual read-out, triplicate
M. Phlei [9] = assay: microbe, parasite or virus in culture; conditions: Mycolicibacterium phlei, 10 h, read-out: MIC M. Phlei
P. aeruginosa 11 [10] = assay: microbe, parasite or virus in culture; conditions: Pseudomonas aeruginosa, 11, 10 h, read-out: MIC P. aeruginosa 11
Pae PAM1020 = conditions: Figure 1F; ref Boojamra et al., 2001; cited from earlier work
Mtb H37Rv [11] = conditions: Figure 1F, ref Tran et al., 2017, cited from earlier work
MraY B. subtilis = conditions: Figure 1F; ref Inukai et al., 1993; cited from earlier work
Description: as §1

For 3′-hydroxymureidomycin A, the IC50 (MraY A. aeolicus; value in brackets) is listed as 52 nM and the “IC50 (MraY A. aeolicus)” value (MraY A. aeolicus) is listed as 0.045 µg/mL.
In the case of 3′-hydroxypacidamycin D, the “MIC (Pae PAO1)” value (Pae PAO1) is given as 32 µg/mL.
Compound `NNC(=O)c1ccncc1` [INH, isoniazid] has an MIC (M. tuberculosis S17 [1]) of 0.03 µg/mL (≈ 0.219 µM) and an MIC (M. tuberculosis H37Rv [2]) of 0.03 µg/mL (≈ 0.219 µM).
With `CC(=O)NC[C@H]1CN(c2ccc(N3CCOCC3)c(F)c2)C(=O)O1` [LZD, linezolid] the MIC (M. tuberculosis S17 [1]) was 0.25 µg/mL (≈ 0.741 µM) and the MIC (M. tuberculosis H37Rv [2]) was 0.25 µg/mL (≈ 0.741 µM).
Work on `CO[C@H]1/C=C/O[C@@]2(C)Oc3c(C)c(O)c4c(O)c(c(/C=N/N5CCN(C)CC5)c(O)c4c3C2=O)NC(=O)/C(C)=C\C=C\[C@H](C)[C@H](O)[C@@H](C)[C@@H](O)[C@@H](C)[C@H](OC(C)=O)[C@@H]1C` [RIF, rifampicin] yielded an MIC (M. tuberculosis S17 [1]) of 0.25 µg/mL (≈ 0.304 µM) and an MIC (M. tuberculosis H37Rv [2]) of 0.125 µg/mL (≈ 0.152 µM).
In the case of `CSCC[C@H](NC(=O)N[C@@H](Cc1c[nH]c2ccccc12)C(=O)O)C(=O)N[C@H](C(=O)N/C=C1/C[C@@H](O)[C@H](n2ccc(=O)[nH]c2=O)O1)[C@H](C)N(C)C(=O)[C@@H](N)Cc1cccc(O)c1` [SS-A, sansanmycin A], the “MIC (Mtb H37Rv)” value (Mtb H37Rv [3]) is given as 16 µg/mL (≈ 18.5 µM), the “MIC M. tuberculosis H37Rv” value (M. tuberculosis H37Rv [4]) is given as 16 µg/mL (≈ 18.5 µM) and the “MIC M. tuberculosis S17” value (M. tuberculosis S17 [5]) is given as 16 µg/mL (≈ 18.5 µM). The “residual quantities after 9 days of incubation” value [6] was “below 70%”, the “MIC P. aeruginosa 11” value (P. aeruginosa 11 [7]) was 16 µg/mL (≈ 18.5 µM) and the “MIC M. Phlei” value (M. Phlei [8]) was 64 µg/mL (≈ 74.1 µM). For the same compound, the “MIC E. coli ΔtolC” value (E. coli ΔtolC) was 4 µg/mL (≈ 4.63 µM).
In the case of `CSCC[C@H](NC(=O)N[C@@H](Cc1c[nH]c2ccccc12)C(=O)O)C(=O)N[C@H](C(=O)NC[C@H]1O[C@@H](n2ccc(=O)[nH]c2=O)C[C@@H]1O)[C@H](C)N(C)C(=O)[C@@H](N)Cc1cccc(O)c1` [SS-KK-1], the “MIC M. tuberculosis H37Rv” value (M. tuberculosis H37Rv [4]) is reported as >64 µg/mL, the “MIC M. tuberculosis S17” value (M. tuberculosis S17 [5]) is reported as >64 µg/mL and the “MIC P. aeruginosa 11” value (P. aeruginosa 11 [7]) is reported as >32 µg/mL. For the same compound, the “MIC M. Phlei” value (M. Phlei [8]) was >32 µg/mL and the “MIC E. coli ΔtolC” value (E. coli ΔtolC) was >32 µg/mL.
In the case of `CSCC[C@H](NC(=O)N[C@@H](Cc1c[nH]c2ccccc12)C(=O)O)C(=O)N[C@H](C(=O)NC[C@H]1O[C@@H](n2ccc(=O)[nH]c2=O)C[C@@H]1O)[C@H](C)N(C)C(=O)[C@@H](N)Cc1ccc(O)cc1` [SS-KK-2], the “MIC M. tuberculosis H37Rv” value (M. tuberculosis H37Rv [4]) is reported as 32 µg/mL (≈ 37 µM), the “MIC M. tuberculosis S17” value (M. tuberculosis S17 [5]) is reported as 32 µg/mL (≈ 37 µM) and the “stability compared with SS-A” value ([6]; 9 days, tested every 3 days) is reported as “slightly higher level of stability than SS-A”. For the same compound, the “MIC P. aeruginosa 11” value (P. aeruginosa 11 [7]) was >32 µg/mL, the “MIC M. Phlei” value (M. Phlei [8]) was >32 µg/mL and the “MIC E. coli ΔtolC” value (E. coli ΔtolC) was 1 µg/mL (≈ 1.15 µM).
In the case of `[H]/N=C(/N)N[C@H]1[C@H](O)[C@@H](O)[C@H](O[C@@H]2O[C@@H](C)[C@](O)(C=O)[C@H]2O[C@@H]2O[C@@H](CO)[C@H](O)[C@@H](O)[C@@H]2NC)[C@@H](N/C(N)=N\[H])[C@@H]1O` [streptomycin], the MIC (M. Phlei [9]) is reported as 16 µg/mL (≈ 27.5 µM), the MIC (P. aeruginosa 11 [10]) is reported as 8 µg/mL (≈ 13.8 µM) and the “MIC E. coli ΔtolC” value (E. coli ΔtolC) is reported as 2 µg/mL (≈ 3.44 µM).
In the case of Dihydropacidamycin D, the “MIC (Pae PAM1020)” value (Pae PAM1020) is listed as 64 µg/mL.
In the case of Dihydrosansanmycin A, the “MIC50 (Mtb H37Rv)” value (Mtb H37Rv [11]; value in brackets) is listed as 0.50 ± 0.05 µM and the “MIC50 (Mtb H37Rv)” value (Mtb H37Rv [11]) is listed as 0.43 µg/mL.
In the case of Dihydrosansanmycin B, the “MIC50 (Mtb H37Rv)” value (Mtb H37Rv [11]; value in brackets) is listed as 0.30 ± 0.07 µM and the “MIC50 (Mtb H37Rv)” value (Mtb H37Rv [11]) is listed as 0.25 µg/mL.
In the case of Dihydrosansanmycin C, the “MIC50 (Mtb H37Rv)” value (Mtb H37Rv [11]; value in brackets) is listed as 18.5 ± 0.70 µM and the “MIC50 (Mtb H37Rv)” value (Mtb H37Rv [11]) is listed as 16 µg/mL.
For Mureidomycin A, the “IC50 (MraY B. subtilis)” value (MraY B. subtilis) is given as 0.05 µg/mL.
In the case of Pacidamycin D, the “MIC (Pae PAM1020)” value (Pae PAM1020) is listed as 64 µg/mL and the “MIC (Pae PAO1)” value (Pae PAO1) is listed as 64 µg/mL.
For Sansanmycin B, the “MIC (Mtb H37Rv)” value (Mtb H37Rv [3]) is given as 8 µg/mL.
In the case of Sansanmycin C, the “MIC (Mtb H37Rv)” value (Mtb H37Rv [3]) is given as > 32 µg/mL.
